Test results reported in ChEMBL document CHEMBL1147725, “Identification and biological characterization of 6-aryl-7-isopropylquinazolinones as novel TRPV1 antagonists that are effective in models of chronic pain” (J Med Chem, 2006).
The source made the active and inactive calls. No cut-off for these calls is given here.

Assays:
[1] = target: Transient receptor potential cation channel subfamily V member 1 (Homo sapiens, UniProt Q8NER1); experiment: Inhibition of calcium influx evoked by capsaicin in human TRPV1 expressing cells by fluorescence assay; type: functional
Chain of Transient receptor potential cation channel subfamily V member 1 (Q8NER1 whole entry): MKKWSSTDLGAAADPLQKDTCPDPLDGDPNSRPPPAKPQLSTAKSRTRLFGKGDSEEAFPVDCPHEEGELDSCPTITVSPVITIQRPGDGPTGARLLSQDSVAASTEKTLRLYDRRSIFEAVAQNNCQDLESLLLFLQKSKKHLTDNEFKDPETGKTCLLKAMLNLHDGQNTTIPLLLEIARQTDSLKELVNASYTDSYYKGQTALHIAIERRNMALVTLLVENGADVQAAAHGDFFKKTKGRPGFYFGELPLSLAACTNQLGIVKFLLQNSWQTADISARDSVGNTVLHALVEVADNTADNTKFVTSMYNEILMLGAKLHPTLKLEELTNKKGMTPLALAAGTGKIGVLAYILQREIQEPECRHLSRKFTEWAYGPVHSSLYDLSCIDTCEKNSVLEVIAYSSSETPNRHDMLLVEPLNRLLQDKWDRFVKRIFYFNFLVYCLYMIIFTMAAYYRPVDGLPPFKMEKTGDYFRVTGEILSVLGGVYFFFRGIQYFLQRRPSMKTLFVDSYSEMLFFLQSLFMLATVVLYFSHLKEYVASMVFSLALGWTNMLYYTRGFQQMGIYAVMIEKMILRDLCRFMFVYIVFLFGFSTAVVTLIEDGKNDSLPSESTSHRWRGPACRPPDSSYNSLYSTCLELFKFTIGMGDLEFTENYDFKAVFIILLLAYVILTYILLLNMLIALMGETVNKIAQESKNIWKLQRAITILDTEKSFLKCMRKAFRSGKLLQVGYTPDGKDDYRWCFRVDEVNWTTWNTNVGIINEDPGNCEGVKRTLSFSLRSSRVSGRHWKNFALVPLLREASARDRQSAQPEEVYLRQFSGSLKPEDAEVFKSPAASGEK

[2] = target: Transient receptor potential cation channel subfamily V member 1 (Rattus norvegicus) (UniProt O35433); experiment: Inhibition of calcium influx evoked by capsaicin in rat TRPV1 expressing cells by fluorescence assay; type: functional, cell-based
Chain of Transient receptor potential cation channel subfamily V member 1 (Rattus norvegicus) (O35433 whole entry): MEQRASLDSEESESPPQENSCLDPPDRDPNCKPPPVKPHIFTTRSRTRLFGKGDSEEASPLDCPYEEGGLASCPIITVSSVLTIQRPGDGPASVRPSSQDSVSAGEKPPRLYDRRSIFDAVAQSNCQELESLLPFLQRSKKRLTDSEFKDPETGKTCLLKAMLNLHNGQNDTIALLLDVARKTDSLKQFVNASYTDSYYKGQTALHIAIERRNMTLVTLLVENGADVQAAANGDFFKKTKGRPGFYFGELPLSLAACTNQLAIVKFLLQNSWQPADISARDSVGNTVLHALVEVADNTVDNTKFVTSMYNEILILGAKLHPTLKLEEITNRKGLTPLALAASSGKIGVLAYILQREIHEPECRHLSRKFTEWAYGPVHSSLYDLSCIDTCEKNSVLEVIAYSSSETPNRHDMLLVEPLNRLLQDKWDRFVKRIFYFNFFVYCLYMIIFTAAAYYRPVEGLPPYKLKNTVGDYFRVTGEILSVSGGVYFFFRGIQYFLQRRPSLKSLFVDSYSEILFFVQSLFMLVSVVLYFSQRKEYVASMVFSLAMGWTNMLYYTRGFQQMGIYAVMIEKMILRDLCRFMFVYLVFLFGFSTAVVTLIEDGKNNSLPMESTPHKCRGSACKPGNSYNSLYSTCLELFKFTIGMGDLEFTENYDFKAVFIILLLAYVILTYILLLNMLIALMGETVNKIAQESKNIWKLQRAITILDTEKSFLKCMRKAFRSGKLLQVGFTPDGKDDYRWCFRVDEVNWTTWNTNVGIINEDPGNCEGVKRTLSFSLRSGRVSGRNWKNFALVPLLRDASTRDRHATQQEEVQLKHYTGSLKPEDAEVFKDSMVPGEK

Compound	IC50 [1] [µM]	Activity [1]	Activity [2]
CCCOc1cc(-c2cc3c(=O)[nH]c(C)nc3cc2C(C)C)ccc1Cl	0.04		
CC(C)(C)c1nc2nc(S)nc(O)c2cc1-c1ccc(Cl)cc1		inactive	inactive
